Assays:
[1] = molecular target: T1, yeast CSE enzyme (CYS3) (Saccharomyces cerevisiae, UniProt P31373); assay: H2S production by LC-MS/MS and substrate consumption; format: biochemical
T1 construct: full-length CYS3 gene amplified from S288C gDNA, expressed in E. coli (pTrc-CYS3), nickel column, SUMO-tag cut off
T1 sequence (P31373 2-394): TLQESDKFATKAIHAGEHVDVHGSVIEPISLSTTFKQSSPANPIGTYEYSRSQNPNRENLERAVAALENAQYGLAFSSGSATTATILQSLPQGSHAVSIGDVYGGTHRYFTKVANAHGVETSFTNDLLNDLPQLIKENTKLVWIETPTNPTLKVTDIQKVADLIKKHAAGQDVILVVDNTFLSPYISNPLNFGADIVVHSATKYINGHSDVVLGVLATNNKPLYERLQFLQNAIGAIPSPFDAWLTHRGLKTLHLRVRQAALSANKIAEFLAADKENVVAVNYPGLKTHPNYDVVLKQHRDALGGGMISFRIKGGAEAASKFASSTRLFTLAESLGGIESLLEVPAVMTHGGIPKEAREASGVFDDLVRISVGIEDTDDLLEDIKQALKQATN

[2] = molecular target: T1, yeast CSE enzyme (CYS3); assay: H2S production from SPRC by LC-MS/MS (sulfide dibimane); format: biochemical; conditions: 473 uM PAG; 473 uM SPRC as substrate; complete inhibition stated in words

N[C@@H](CCSC[C@H](N)C(=O)O)C(=O)O [CTT, L-cystathionine]
H2S production by LC-MS/MS and substrate consumption ([1]; 473 uM CTT): hydrogen sulfide production increased rapidly whereas the amount of L-cystathionine (CTT) decreased accordingly

C#CCSC[C@H](N)C(=O)O [SPRC, S-propargyl-cysteine]
H2S production by LC-MS/MS and substrate consumption ([1]; 473 uM SPRC): SPRC elimination was accomplished with increased level of hydrogen sulfide in the CYS3 mixture

C#CCC(N)C(=O)O (racemic) [PAG, propargylglycine]
H2S production from SPRC by LC-MS/MS (sulfide dibimane) [2]: propargylglycine (PAG) completely inhibited the hydrogen sulfide production of CYS3 by using SPRC

Source: PMC5390247, “New method for quantification of gasotransmitter hydrogen sulfide in biological matrices by LC-MS/MS” (Scientific Reports, 2017)
